Some test systems named below: HT29 colon; DU-145 prostate; HCT-116 colon; SNB-75 CNS; T-47D breast; NCI/ADR-RES ovarian; HCT-15 colon; MALME-3M melanoma; UO-31 renal; 786-0 renal; NCI-H522 lung; MOLT-4 leukemia; OVCAR-3 ovarian; CCRF-CEM leukemia; HL-60(TB) leukemia.
Holding throughout (test): growth of human tumour cells (NCI), 48 h

The source of these data is PubChem BioAssay (NCI).

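Dose response: 5 concentrations. Exposure: 48 h. Format: 96-well plates. Endpoint: linear interpolation; highest concentration if not reached. TGI marks complete inhibition of growth.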

`O=C(Nc1ccccc1)N(C1=NCC(CI)S1)c1ccc(F)cc1F` (stereo not given): the TGI with HT29 colon, in the assay with DU-145 prostate, in the assay with HCT-116 colon, with SNB-75 CNS, with T-47D breast and in the assay with NCI/ADR-RES ovarian was above 100 µM in each case. Besides, the TGI in the assay on HCT-15 colon is above 100 µM; in the assay with MALME-3M melanoma, above 100 µM; in the assay with UO-31 renal it was above 100 µM; with 786-0 renal, above 100 µM; in the assay on NCI-H522 lung, above 100 µM; with MOLT-4 leukemia, 57 µM. Also, the TGI is above 100 µM in the assay on OVCAR-3 ovarian, 48.1 µM with CCRF-CEM leukemia and 48 µM with HL-60(TB) leukemia.
On to `CCCCCCOc1ccc(C(=O)NO)cc1`, for which the TGI in the assay on HT29 colon was 22.7 µM; with DU-145 prostate, 18.2 µM; in the assay on HCT-116 colon, 21.5 µM; with SNB-75 CNS it was above 67.2 µM; in the assay with T-47D breast, 41.3 µM; in the assay on NCI/ADR-RES ovarian it was 18.5 µM. Further, the TGI in the assay on HCT-15 colon is 16.1 µM; with MALME-3M melanoma, 34.4 µM; in the assay on UO-31 renal, 20.1 µM; with 786-0 renal, 16.6 µM; in the assay with NCI-H522 lung, 19.7 µM; in the assay with MOLT-4 leukemia, 18.7 µM. The TGI was 28.6 µM in the assay on OVCAR-3 ovarian, 5.27 µM with CCRF-CEM leukemia and 14 µM in the assay on HL-60(TB) leukemia.
Take `CCOC(=O)CSc1nnc2cc(CN3CCCC3)c(-c3ccc(Cl)cc3)nn12`: the TGI with HT29 colon, in the assay on DU-145 prostate, in the assay with HCT-116 colon, with SNB-75 CNS, in the assay on T-47D breast and with NCI/ADR-RES ovarian was above 100 µM in each case. Also, the TGI in the assay with HCT-15 colon, in the assay with MALME-3M melanoma, in the assay on UO-31 renal, in the assay with 786-0 renal, in the assay with NCI-H522 lung and with MOLT-4 leukemia was above 100 µM in each case. Moreover, the TGI in the assay with OVCAR-3 ovarian, in the assay with CCRF-CEM leukemia and with HL-60(TB) leukemia was above 100 µM each time.
As to `c1cc2c(c(NC3=NCCO3)c1)CCC2`, the TGI in the assay with HT29 colon, in the assay on DU-145 prostate, in the assay with HCT-116 colon, in the assay on T-47D breast, in the assay with NCI/ADR-RES ovarian and with HCT-15 colon was above 100 µM each time. Moreover, the TGI in the assay on MALME-3M melanoma, with UO-31 renal, in the assay on 786-0 renal, in the assay on NCI-H522 lung, in the assay on MOLT-4 leukemia and in the assay on OVCAR-3 ovarian was above 100 µM each time. Further, the TGI in the assay on CCRF-CEM leukemia and with HL-60(TB) leukemia was above 100 µM each time.
With `COC(=O)[C@@H]1CN(C(C)=O)C(=O)N1C(=O)OCc1ccccc1`, the TGI with HT29 colon, in the assay on DU-145 prostate, in the assay on HCT-116 colon, with T-47D breast, with NCI/ADR-RES ovarian and in the assay on HCT-15 colon was above 100 µM throughout. Also, the TGI with MALME-3M melanoma, in the assay with UO-31 renal, in the assay with 786-0 renal, in the assay on NCI-H522 lung, in the assay with MOLT-4 leukemia and in the assay with OVCAR-3 ovarian was above 100 µM throughout. Moreover, the TGI in the assay with CCRF-CEM leukemia and in the assay with HL-60(TB) leukemia was above 100 µM each time.
Take `CN(N)c1cc(=O)[nH]c(=O)[nH]1`: the TGI in the assay on HT29 colon, in the assay with DU-145 prostate, in the assay with HCT-116 colon, with T-47D breast, in the assay on NCI/ADR-RES ovarian and in the assay on HCT-15 colon was above 100 µM throughout. Also, the TGI in the assay on MALME-3M melanoma, in the assay with 786-0 renal, in the assay with NCI-H522 lung, with MOLT-4 leukemia, with OVCAR-3 ovarian and in the assay on CCRF-CEM leukemia was above 100 µM each time. In the assay with HL-60(TB) leukemia, this compound showed a TGI above 100 µM.
On to `C=C[C@@H]1C[C@]2(C(=O)OC)Cc3nc4ccccc4nc3CC(C(=O)OC)=C2O1`, for which the TGI in the assay with HT29 colon, with DU-145 prostate, with HCT-116 colon, with T-47D breast, in the assay with NCI/ADR-RES ovarian and in the assay with HCT-15 colon was above 100 µM in each case. The TGI in the assay on MALME-3M melanoma, in the assay with 786-0 renal, in the assay with NCI-H522 lung, in the assay on MOLT-4 leukemia, with OVCAR-3 ovarian and in the assay with CCRF-CEM leukemia was above 100 µM throughout. The same compound displayed a TGI in the assay on HL-60(TB) leukemia above 100 µM.
On to `CC1=CC[C@@]2(CO)[C@@H]([C@@H]1C)[C@H]1CC[C@@H]3[C@@]4(C)CC[C@H](O)C(C)(C)[C@@H]4CC[C@@]3(C)[C@]1(C)C[C@@H]2O`, for which the TGI is above 100 µM in the assay with HT29 colon; above 100 µM in the assay on DU-145 prostate; above 100 µM in the assay with HCT-116 colon; 75.1 µM with T-47D breast; above 100 µM in the assay with NCI/ADR-RES ovarian; above 100 µM with HCT-15 colon. The TGI with MALME-3M melanoma was 72.8 µM; with UO-31 renal it was above 100 µM; with 786-0 renal, above 100 µM; in the assay with NCI-H522 lung it was 42.8 µM; in the assay on MOLT-4 leukemia, above 100 µM; in the assay with OVCAR-3 ovarian, above 100 µM. The TGI with CCRF-CEM leukemia and in the assay with HL-60(TB) leukemia was above 100 µM in each case.
In the case of `c1ccc([P+](Cc2ccccc2C[P+](c2ccccc2)(c2ccccc2)c2ccccc2)(c2ccccc2)c2ccccc2)cc1`, the TGI in the assay on HT29 colon, with DU-145 prostate, in the assay on HCT-116 colon, in the assay on SNB-75 CNS, in the assay on T-47D breast and with NCI/ADR-RES ovarian was above 100 µM in each case. Also, the TGI with HCT-15 colon, in the assay on MALME-3M melanoma, in the assay with UO-31 renal, with 786-0 renal, in the assay on NCI-H522 lung and in the assay with OVCAR-3 ovarian was above 100 µM throughout. Also, the TGI with HL-60(TB) leukemia is above 100 µM.
For the compound `CCc1n[nH]c(=O)n1/N=C/c1ccc(C)cc1`, the TGI in the assay on HT29 colon, with DU-145 prostate, in the assay with HCT-116 colon, with T-47D breast, in the assay with NCI/ADR-RES ovarian and in the assay on HCT-15 colon was above 100 µM throughout. Moreover, the TGI in the assay with MALME-3M melanoma, with UO-31 renal, in the assay with 786-0 renal, with NCI-H522 lung, in the assay with MOLT-4 leukemia and in the assay with OVCAR-3 ovarian was above 100 µM each time. Further, the TGI with CCRF-CEM leukemia and in the assay with HL-60(TB) leukemia was above 100 µM throughout.
